Results on 14 compounds are retold here after patent US7265107B2, “Rifamycin C-11 oxime cyclo derivatives effective against drug-resistant microbes” (Cumbre Pharmaceuticals Inc., priority 2004, dated 2007).

Values after ≈ are worked out from the molar mass of the structure shown.

Common to all, as to type: cell-based
In assay [1] the test system is Streptococcus pneumoniae ATCC6303. The settings on record: rifS, THY Broth with 1 mg/mL catalase, 5% CO2, 37° C., read-out: Antimicrobial activity (MIC).
Assay [2] has as its system Haemophilus influenzae ATCC10211. The settings on record: rifS, BHI Broth with NAD and hematin, 37° C., read-out: Antimicrobial activity (MIC).
Assay [3] relates to Staphylococcus aureus EN1252a gvrA^S84L grlA^S80F. The assay is described as follows: microbe, parasite or virus in culture. The settings on record: cipR, Cation-Adjusted Mueller-Hinton Broth, 37° C., read-out: Antimicrobial activity (MIC). On the procedure:
Representative compounds were assayed for antimicrobial activity as follows: Minimum Inhibitory Concentrations (“MICs”) were determined by the microbroth dilution method as per NCCLS guidelines (National Committee for Clinical Laboratory Standards. 2000. Methods for dilution antimicrobial susceptibility tests for bacteria that grow aerobically, 5th ed. M7-A5. National Committee for Clinical Laboratory Standards, Wayne, Pa.), except that all growth incubations were conducted at 37° C. Bacterial cultures were tested in the following bacteriological media: S. aureus, S. epidermidis, and E. coli in Cation-Adjusted Mueller-Hinton Broth, S. pneumoniae in THY Broth supplemented with 1 mg/mL catalase under 5% CO2 atmosphere, S. pyogenes in THY Broth, E. faecalis in BHI Broth, H. influenzae in BHI Broth supplemented with 0.75 μL of 1 mg/mL NAD and 150 μL of 1 mg/ml hematin per 5 mL, and M. smegmatis in Middlebrook Broth plus ADC Enrichment.
S. aureus EN1252a gyrA^S84L grlA^S80F is a quinolone-resistant strain due to double mutations to the genes confer DNA gyrase and topoisomerase IV.

Assay [4] deals with Enterococcus faecalis ATCC29212. The settings on record: rifS, BHI Broth, 37° C., read-out: Antimicrobial activity (MIC).

In the case of `CO[C@H]1/C=C/O[C@@]2(C)Oc3c(C)c(O)c4c(c3/C2=N/O)C2=NC3(CCN(CC(C)C)CC3)NC2=C(NC(=O)/C(C)=C\C=C\[C@H](C)[C@H](O)[C@@H](C)[C@@H](O)[C@@H](C)[C@H](OC(C)=O)[C@@H]1C)C4=O` [Example 4, 11-Deoxy-11-hydroxyimino-1′,4-didehydro-1-deoxy-1,4-dihydro-5′-(2-methylpropyl)-1-oxo-rifamycin XIV], the MIC in assay [1] lay within 0.06 to 31 ng/mL (≈ 0.0696 to 36 nM); in assay [2] it was 125 to 8000 ng/mL (≈ 145 to 9280 nM); in assay [3], 0.5 to 125 ng/mL (≈ 0.58 to 145 nM); in assay [4], 500 to 31200 ng/mL (≈ 580 to 36300 nM).
For `CO[C@H]1/C=C/O[C@@]2(C)Oc3c(C)c(O)c4c(=O)c(c5oc6cc(N7CCN(CC(C)C)CC7)cc(O)c6nc-5c4c3/C2=N/O)NC(=O)/C(C)=C\C=C\[C@H](C)[C@H](O)[C@@H](C)[C@@H](O)[C@@H](C)[C@H](OC(C)=O)[C@@H]1C` [Example 5, 11-Deoxy-11-hydroxyimino-1′,4-didehydro-1-deoxy-1,4-dihydro-3′-hydroxy-5′-[4-(2-methylpropyl)-1-piperazinyl]-1-oxo-rifamycin VIII] the same measures were 0.06 to 31 ng/mL (≈ 0.0628 to 32.4 nM), 125 to 8000 ng/mL (≈ 131 to 8370 nM), 0.5 to 125 ng/mL (≈ 0.523 to 131 nM) and 500 to 31200 ng/mL (≈ 523 to 32700 nM).
In the case of `CO[C@H]1/C=C/O[C@@]2(C)Oc3c(C)c(O)c4c(=O)c(c5oc6cc(N7CCOCC7)cc(O)c6nc-5c4c3/C2=N/O)NC(=O)/C(C)=C\C=C\[C@H](C)[C@H](O)[C@@H](C)[C@@H](O)[C@@H](C)[C@H](OC(C)=O)[C@@H]1C` [Example 6, 11-Deoxy-11-hydroxyimino-1′,4-didehydro-1-deoxy-1,4-dihydro-3′-hydroxy-5′-(morpholin-4-yl)-1-oxo-rifamycin VIII], the MIC lay within 0.06 to 31 ng/mL (≈ 0.0666 to 34.4 nM) in assay [1], 125 to 8000 ng/mL (≈ 139 to 8880 nM) in assay [2], 0.5 to 125 ng/mL (≈ 0.555 to 139 nM) in assay [3] and 500 to 31200 ng/mL (≈ 555 to 34700 nM) in assay [4].
In the same order, the values of `CO[C@H]1/C=C/O[C@@]2(C)Oc3c(C)c(O)c4c(=O)c(c5oc6cc(N7CCN(C)CC7)cc(O)c6nc-5c4c3/C2=N/O)NC(=O)/C(C)=C\C=C\[C@H](C)[C@H](O)[C@@H](C)[C@@H](O)[C@@H](C)[C@H](OC(C)=O)[C@@H]1C` [Example 7, 11-Deoxy-11-hydroxyimino-1′,4-didehydro-1-deoxy-1,4-dihydro-3′-hydroxy-5′-(4-methyl-i-piperazinyl)-1-oxo-rifamycin VIII] are 0.06 to 31 ng/mL (≈ 0.0656 to 33.9 nM), 125 to 8000 ng/mL (≈ 137 to 8750 nM), 0.5 to 125 ng/mL (≈ 0.547 to 137 nM) and 500 to 31200 ng/mL (≈ 547 to 34200 nM).
In the same order, the values of `CCN1CCN(c2cc(O)c3nc4c5c6c7c(C)c(O)c5c(=O)c(c-4oc3c2)NC(=O)/C(C)=C\C=C\[C@H](C)[C@H](O)[C@@H](C)[C@@H](O)[C@@H](C)[C@H](OC(C)=O)[C@H](C)[C@@H](OC)/C=C/O[C@@](C)(O7)/C6=N\O)CC1` [Example 8, 11-Deoxy-11-hydroxyimino-1′,4-didehydro-1-deoxy-1,4-dihydro-3′-hydroxy-5′-(4-ethyl-1-piperazinyl)-1-oxo-rifamycin VIII] are 0.06 to 31 ng/mL (≈ 0.0647 to 33.4 nM), 125 to 8000 ng/mL (≈ 135 to 8620 nM), 0.5 to 125 ng/mL (≈ 0.539 to 135 nM) and 500 to 31200 ng/mL (≈ 539 to 33700 nM).
In the case of `CO[C@H]1/C=C/O[C@@]2(C)Oc3c(C)c(O)c4c(=O)c(c5oc6cc(N7CCN(C(C)C)CC7)cc(O)c6nc-5c4c3/C2=N/O)NC(=O)/C(C)=C\C=C\[C@H](C)[C@H](O)[C@@H](C)[C@@H](O)[C@@H](C)[C@H](OC(C)=O)[C@@H]1C` [Example 9, 11-Deoxy-11-hydroxyimino-1′,4-didehydro-1-deoxy-1,4-dihydro-3′-hydroxy-5′-(4-isopropyl-1-piperazinyl)-1-oxo-rifamycin VIII], the MIC in assay [1] is 0.06 to 31 ng/mL (≈ 0.0637 to 32.9 nM); in assay [2], 125 to 8000 ng/mL (≈ 133 to 8490 nM); in assay [3], 0.5 to 125 ng/mL (≈ 0.531 to 133 nM); in assay [4], 500 to 31200 ng/mL (≈ 531 to 33200 nM).
For `CCCCN1CCN(c2cc(O)c3nc4c5c6c7c(C)c(O)c5c(=O)c(c-4oc3c2)NC(=O)/C(C)=C\C=C\[C@H](C)[C@H](O)[C@@H](C)[C@@H](O)[C@@H](C)[C@H](OC(C)=O)[C@H](C)[C@@H](OC)/C=C/O[C@@](C)(O7)/C6=N\O)CC1` [Example 10, 11-Deoxy-11-hydroxyimino-1′,4-didehydro-1-deoxy-1,4-dihydro-3′-hydroxy-5′-(4-butyl-1-piperazinyl)-1-oxo-rifamycin VIII] the same measures were 0.06 to 31 ng/mL (≈ 0.0628 to 32.4 nM), 125 to 8000 ng/mL (≈ 131 to 8370 nM), 0.5 to 125 ng/mL (≈ 0.523 to 131 nM) and 500 to 31200 ng/mL (≈ 523 to 32700 nM).
In the same order, the values of `CO[C@H]1/C=C/O[C@@]2(C)Oc3c(C)c(O)c4c(=O)c(c5oc6cc(N7CCN(CC8CCCCC8)CC7)cc(O)c6nc-5c4c3/C2=N/O)NC(=O)/C(C)=C\C=C\[C@H](C)[C@H](O)[C@@H](C)[C@@H](O)[C@@H](C)[C@H](OC(C)=O)[C@@H]1C` [Example 11, 11-Deoxy-11-hydroxyimino-1′,4-didehydro-1-deoxy-1,4-dihydro-3′-hydroxy-5′-(4-cyclohexylmethyl-1-piperazinyl)-1-oxo-rifamycin VIII] are 0.06 to 31 ng/mL (≈ 0.0602 to 31.1 nM), 125 to 8000 ng/mL (≈ 125 to 8030 nM), 0.5 to 125 ng/mL (≈ 0.502 to 125 nM) and 500 to 31200 ng/mL (≈ 502 to 31400 nM).
For `CO[C@H]1/C=C/O[C@@]2(C)Oc3c(C)c(O)c4c(=O)c(c5oc6cc(N7CCN(CC8CCN(C)CC8)CC7)cc(O)c6nc-5c4c3/C2=N/O)NC(=O)/C(C)=C\C=C\[C@H](C)[C@H](O)[C@@H](C)[C@@H](O)[C@@H](C)[C@H](OC(C)=O)[C@@H]1C` [Example 12, 11-Deoxy-11-hydroxyimino-1′,4-didehydro-1-deoxy-1,4-dihydro-3′-hydroxy-5 V-[4-(1-Methyl-piperidin-4-ylmethyl)-1-piperazinyl]-1-oxo-rifamycin VII] the same measures were 0.06 to 31 ng/mL (≈ 0.0593 to 30.7 nM), 125 to 8000 ng/mL (≈ 124 to 7910 nM), 0.5 to 125 ng/mL (≈ 0.494 to 124 nM) and 500 to 31200 ng/mL (≈ 494 to 30900 nM).
For `CO[C@H]1/C=C/O[C@@]2(C)Oc3c(C)c(O)c4c(=O)c(c5oc6cc(N7CCC(N8CCCCC8)CC7)cc(O)c6nc-5c4c3/C2=N/O)NC(=O)/C(C)=C\C=C\[C@H](C)[C@H](O)[C@@H](C)[C@@H](O)[C@@H](C)[C@H](OC(C)=O)[C@@H]1C` [Example 13, 11-Deoxy-11-hydroxyimino-1′,4-didehydro-1-deoxy-1,4-dihydro-3′-hydroxy-5′-[(1,4′)-bipiperidinyl-1′-yl]-1-oxo-rifamycin VIII], the MIC in assay [1] was in the range of 0.06 to 31 ng/mL (≈ 0.0611 to 31.6 nM); in assay [2], 125 to 8000 ng/mL (≈ 127 to 8150 nM); in assay [3], 0.5 to 125 ng/mL (≈ 0.509 to 127 nM); in assay [4] it was 500 to 31200 ng/mL (≈ 509 to 31800 nM).
Consider `CO[C@H]1/C=C/O[C@@]2(C)Oc3c(C)c(O)c4c(=O)c(c5oc6cc(N7CC(C)NC(C)C7)cc(O)c6nc-5c4c3/C2=N/O)NC(=O)/C(C)=C\C=C\[C@H](C)[C@H](O)[C@@H](C)[C@@H](O)[C@@H](C)[C@H](OC(C)=O)[C@@H]1C` (some centres unmarked) [Example 14, 11-Deoxy-11-hydroxyimino-1′,4-didehydro-1-deoxy-1,4-dihydro-3′-hydroxy-5′-(3,5-dimethyl-1-piperazinyl)-1-oxo-rifamycin VIII], for which the MIC in assay [1] was in the range of 0.06 to 31 ng/mL (≈ 0.0647 to 33.4 nM); in assay [2], 125 to 8000 ng/mL (≈ 135 to 8620 nM); in assay [3] it was 0.5 to 125 ng/mL (≈ 0.539 to 135 nM); in assay [4] it was 500 to 31200 ng/mL (≈ 539 to 33700 nM).
For `CO[C@H]1/C=C/O[C@@]2(C)Oc3c(C)c(O)c4c(=O)c(c5oc6cc(N7CC[C@@H](N)C7)cc(O)c6nc-5c4c3/C2=N/O)NC(=O)/C(C)=C\C=C\[C@H](C)[C@H](O)[C@@H](C)[C@@H](O)[C@@H](C)[C@H](OC(C)=O)[C@@H]1C` [Example 15, 11-Deoxy-11-hydroxyimino-1′,4-didehydro-1-deoxy-1,4-dihydro-3′-hydroxy-5′-(3-amino-pyrrolidin-1-yl)-1-oxo-rifamycin VIII], the MIC in assay [1] fell in the range of 0.06 to 31 ng/mL (≈ 0.0667 to 34.4 nM); in assay [2] it was 125 to 8000 ng/mL (≈ 139 to 8890 nM); in assay [3], 0.5 to 125 ng/mL (≈ 0.556 to 139 nM); in assay [4], 500 to 31200 ng/mL (≈ 556 to 34700 nM).
With `CO[C@H]1/C=C/O[C@@]2(C)Oc3c(C)c(O)c4c(=O)c(c5oc6cc(N7CCCC7)cc(O)c6nc-5c4c3/C2=N/O)NC(=O)/C(C)=C\C=C\[C@H](C)[C@H](O)[C@@H](C)[C@@H](O)[C@@H](C)[C@H](OC(C)=O)[C@@H]1C` [Example 16, 11-Deoxy-11-hydroxyimino-1′,4-didehydro-1-deoxy-1,4-dihydro-3′-hydroxy-5′-(pyrrolidin-1-yl)-1-oxo-rifamycin VIII], the MIC in assay [1] fell in the range of 0.06 to 31 ng/mL (≈ 0.0678 to 35 nM); in assay [2] it was 125 to 8000 ng/mL (≈ 141 to 9040 nM); in assay [3] it was 0.5 to 125 ng/mL (≈ 0.565 to 141 nM); in assay [4] it was 500 to 31200 ng/mL (≈ 565 to 35300 nM).
Regarding `CO[C@H]1/C=C/O[C@@]2(C)Oc3c(C)c(O)c4c(=O)c(c5oc6cc(N7CCN(CCOCCO)CC7)cc(O)c6nc-5c4c3/C2=N/O)NC(=O)/C(C)=C\C=C\[C@H](C)[C@H](O)[C@@H](C)[C@@H](O)[C@@H](C)[C@H](OC(C)=O)[C@@H]1C` [Example 17, 11-Deoxy-11-hydroxyimino-1′,4-didehydro-1-deoxy-1,4-dihydro-3′-hydroxy-5′-{4-[2-(2-hydroxy-ethoxy)-ethyl]-piperazin-1-yl}-1-oxo-rifamycin VIII], the MIC in assay [1] fell in the range of 0.06 to 31 ng/mL (≈ 0.0607 to 31.4 nM); in assay [2], 125 to 8000 ng/mL (≈ 127 to 8100 nM); in assay [3], 0.5 to 125 ng/mL (≈ 0.506 to 127 nM); in assay [4] it was 500 to 31200 ng/mL (≈ 506 to 31600 nM).
